The results in this text go back to patent US4521418A, “Guanidinothiazolyl derivatives” (Smith Kline & French Laboratories Limited, priority 1979, dated 1985).

The structures appear in SMILES notation.

The subject of this experiment is histamine H2 -receptors. As to the kind of experiment: inhibition of histamine-stimulated secretion of gastric acid from Heidenhain pouch dogs. To be noted: Heidenhain pouch dog, 0.25 micromol kg^-1 i.v. The class given is in vivo. How it is done:
Heidenhain pouch dogs are prepared by the following procedure. The abdomen of a male beagle (14-16 kg) is opened and the stomach is exteriorized. Blood vessels are ligated and cut at two places on the greater curvature to enable a piece of the fundus of the stomach to be cut away from the main stomach to form the pouch. The incision lines are sewn together to enable normal digestion. A stainless steel cannula is inserted into the pouch and the end not in the pouch is exteriorized through a stab wound in the abdominal wall to allow drainage of gastric juice under gravity. Finally, the abdomen is closed by a continuous suture. The dogs are ready for experimental use approximately three weeks after operation. The compounds of the invention are tested in Heidenhain pouch dogs by the following procedure. The dogs are starved for approximately 20 hours prior to the experiment and are then placed in Pavlov stands. A polythene cannula is placed in a leg vein and saline is infused for about one hour. A check is made that there is no basal acid secretion. Histamine (20 micromoles/hour) or pentagastrin (8 micrograms/kg/hour) is continuously infused in place of the saline. A plateau of acid secretion is reached after 11/2 to 2 hours and the test compound is administered intravenously or orally (contained within a hard gelatin capsule). Gastric juice is collected by drainage under gravity into perspex tubes attached to the gastric cannula. Normally samples are collected over fifteen minute periods. The volumes of the samples are measured and aliquots are titrated to pH 7.4 with 0.1N sodium hydroxide. Acid secretion is expressed as the product of the volume and acid concentration.

For `N=C(N)Nc1nc(CSCCNc2ncc(Cc3cccnc3)c(=O)[nH]2)cs1` [Example 1, 2-[2-(2-guanidino-4-thiazolylmethylthio)ethylamino]-5-(3-pyridylmethyl)-4-pyrimidone], the duration of action entry is on record as “extended duration of action” and the “mean peak inhibition of histamine-stimulated gastric acid secretion” value is listed as “over 50%”.

As for `Cc1ccc(Cc2cnc(NCCSCc3csc(NC(=N)N)n3)[nH]c2=O)cn1` [Example 3, 2-[2-(2-guanidino-4-thiazolylmethylthio)ethylamino]-5-(6-methyl-3-pyridylmethyl)-4-pyrimidone], the duration of action result is recorded as “extended duration of action” and the “mean peak inhibition of histamine-stimulated gastric acid secretion” value is “over 50%”.
